Data reported in patent US10239847B1, “Method for 2-oxothiazolidine-4-carboxylic acid for cellular glutathione” (JBP Group LLC, priority 2016, dated 2019).
“Also recorded” adds a separate entry of the source. Like-named read-outs stand apart in the source and are kept apart here.

Key:
[1] = system: Rat; test: Single IV toxicity (NOAEL/LOAEL), rat; format: in vivo; conditions: compared to IV rat, suggested human oral dose 0.025 g/kg
Text: (§1) The following tables are a compilation of known results and estimates of NOAEL/LOAEL for various animal species and humans. […] In addition, genetic toxicity studies, Ames Test, Chromosome Aberration, and Mouse Micronucleus have been conducted and all of these studies were negative for genetic toxicity (i.e. non-genotoxic).
(§2) The following is a compilation of known results and estimates of NOAEL/LOAEL for various animal species and humans.

[2] = system: Mouse; test: Single IV toxicity (NOAEL/LOAEL), mouse; format: in vivo; conditions: printed 'compared to IV rat', suggested human oral dose 0.025 g/kg
Text: as §1, §2

[3] = system: Dog; test: Single IV toxicity (NOAEL/LOAEL), dog; format: in vivo; conditions: compared to IV dog, suggested human oral dose 0.025 g/kg
Text: as §1, §2

[4] = system: Rat; test: Once daily IV for 28 days, rat; format: in vivo; conditions: compared to IV rat, suggested human oral dose 0.025 g/kg
Text: as §1, §2

[5] = system: Dog; test: Once daily IV for 28 days, dog; format: in vivo; conditions: compared to IV dog, suggested human oral dose 0.025 g/kg
Text: as §1, §2

[6] = system: Human HIV patients; test: Clinical: single IV then six biweekly infusions, 13 administrations, HIV patients; format: in vivo; conditions: compared to human IV; suggested human oral dose 25 mg/kg/day
Text: as §1, §2

[7] = system: Human HIV patients; test: Clinical: single oral dose then 3000, 4500, 9000 mg/day for 28 days, HIV patients; format: in vivo; conditions: compared to human oral, suggested human oral dose 25 mg/kg/day
Text: as §1, §2

[8] = system: Human HIV patients; test: Clinical: oral daily for 6 months, HIV patients; format: in vivo; conditions: compared to human oral, suggested human oral dose 25 mg/kg/day
Text: as §1, §2

[9] = system: Human HIV patients; test: Clinical: oral ≥25 mg/kg daily for 1 week, HIV patients; format: in vivo; conditions: compared to human oral, suggested human oral dose 25 mg/kg/day
Text: as §1, §2

[10] = system: Human ARDS patients; test: Clinical: IV 63 mg/kg every 8 hours for 10 days, ARDS patients; format: in vivo; conditions: compared to IV human (ARDS); suggested human oral dose 25 mg/kg/day
Text: as §1, §2

[11] = system: Human HIV patients; test: Clinical: orally up to 9000 mg/day for 2 years, HIV patients; format: in vivo
[12] = system: dogs; test: Acute and repeat intravenous NOAEL in dogs; format: in vivo; conditions: recommended daily intake 1.75 g (~25 mg/kg) compared to dog IV NOAEL
Protocol: (§3) Utilizing animal (dog and rat) data and comparing that to the recommended daily procysteine (Cellactin) intake of 1.75 g or ˜25 mg/kg, that represents 18× to 96× safety margin compared to acute no adverse effect level (NOAEL) and repeat NOAEL intravenous administration in dogs (450 mg/kg) and rats (2400 mg/kg), respectively. The safety margin may be even greater if compared to animal oral administration data.
(§4) Acute NOAEL and repeat NOAEL for intravenous administration in dogs was 450 mg/kg and in rats was 2400 mg/kg, with these values representing the highest dosages intravenously tested and it is assumed that the NOAEL levels would be even higher for oral administration in animals. […] Therefore, it is reasonable to expect that a recommended human oral, daily procysteine (Cellactin) intake of 1.75 grams will be safe and an acceptable daily intake of up to 9 grams orally could also be considered safe.

[13] = system: rats; test: Acute and repeat intravenous NOAEL in rats; format: in vivo; conditions: recommended daily intake 1.75 g (~25 mg/kg) compared to rat IV NOAEL
Protocol: as §3, §4

[14] = system: human; test: Human intravenous NOAEL calculations; format: in vivo; conditions: oral daily intake 1.75 grams compared to human intravenous NOAEL calculations
Text: (§5) This would then result in an EDI/ADI ratio of 9 grams/day/9 grams/day=1. Without knowing the NOAEL or LOAEL for humans it is difficult to determine a true estimate of margin of safety. […] However, it would be reasonable to assume that a much higher estimate of safety margin would be expected based on the 4-8× estimate comparing oral, daily Procysteine (Cellactin) intake of 1.75 grams to human intravenous NOAEL calculations shown above in section 4.1 and 18 or 96× comparing to dog and rat intravenous NOAEL calculations, respectively shown above in Section 4.1. It is reasonable to conclude that the safety margin would be even greater if compared to animal oral administration data.
as §5, with “Without” for “This would then result in an EDI/ADI ratio of 9 grams/day/9 grams/day=1. Without”

[15] = Shelf life / purity stability of Cellactin; format: physicochemical
Text: FIG. 9 illustrates Cellactin shelf life estimation by extrapolation. As depicted that upper dotted line indicates an upper acceptance of 100 percent stability. The lower dotted line indicates 99 percent stability. The solid line represents the extrapolation line with the triangles representing raw data. The product has been extrapolated to be stable for 2 years as supplied if stored in original package at ambient temperature and protected from heat and moisture. […] Confirmation of extrapolation assumes the change pattern may continue to fit model for at least 24 months.

[16] = system: Human HIV patients; conditions: single IV then six biweekly infusions, 13 administrations, highest dose tested; cited from earlier work
[17] = system: Human HIV patients; conditions: oral ≥25 mg/kg daily for 1 week, highest dose tested; cited from earlier work
[18] = system: Human ARDS patients; conditions: IV every 8 hours for 10 days, highest dose tested, cited from earlier work
[19] = system: Human HIV patients; conditions: cited from earlier work
[20] = system: human; conditions: cited from earlier work
[21] = system: blood glutathione levels; conditions: human, oral 25-129 mg/kg (1.75-9 g/day), dose response manner; cited from earlier work
[22] = system: Mouse; conditions: in vivo; cited from earlier work
[23] = system: patients with ARDS; conditions: first Phase II trial, 32 ARDS patients, IV; cited from earlier work
[24] = system: patients with ARDS; conditions: Phase II, versus placebo; cited from earlier work
[25] = system: glutathione in rat lungs and leukocytes; conditions: sulfur amino acid deficient rat diets, supplementation; cited from earlier work
[26] = system: tissue glutathione levels; conditions: acutely septic rats; cited from earlier work
[27] = system: tissue glutathione levels; conditions: rodent brains; cited from earlier work
[28] = system: cellular glutathione levels; conditions: glutathione-depleting agents administered to otherwise healthy animals; cited from earlier work
[29] = system: liver glutathione levels; conditions: fasted mice, dietary supplementation; cited from earlier work
[30] = system: intracellular levels of glutathione; conditions: preclinical studies; cited from earlier work
[31] = system: Rat; conditions: in vivo, iv; cited from earlier work
[32] = system: Mouse; conditions: in vivo, iv; cited from earlier work
[33] = system: Dog; conditions: in vivo, iv; cited from earlier work
[34] = system: Rat, neonate; conditions: in vivo, iv; cited from earlier work
[35] = system: Rat; conditions: in vivo, iv; cited from earlier work; remark: listed apart in the source
[36] = system: Dog; conditions: in vivo, iv; cited from earlier work; remark: listed apart in the source
[37] = system: dogs; conditions: dog, in vivo; cited from earlier work
[38] = system: rats; conditions: rat, in vivo; cited from earlier work
[39] = human, oral, as used for the EDI/ADI ratio

With `O=C1N[C@H](C(=O)O)CS1` [procysteine, L-2-oxothiazolidine-4-carboxylate] the “Safety Margin Human Oral” value [1] was 96× compared, the “Safety Margin Human Oral” value [2] was 96× compared and the “Safety Margin Human Oral” value [3] was 18× compared. For the same molecule, the “Safety Margin Human Oral” value [4] was 96× compared, the “Safety Margin Human Oral” value [5] was 18× compared and the “Safety Margin Human Oral” value [6] was 4X compared. The “Safety Margin Human Oral” value [7] was 5X compared, the “Safety Margin Human Oral” value [8] was 5X compared and the “Safety Margin Human Oral” value [9] was 1X compared. The “Safety Margin Human Oral” value [10] was 8X compared, the EDI/ADI ratio ([11]; 9 grams/day / 9 grams/day) was 1 and the “Safety Margin Human Oral” value ([11]; compared to human oral, 2 years, suggested human oral dose 25 mg/kg/day) was 5X compared. The ADI [11, 39] was under 9 grams/day, the “estimated daily intake (EDI)” value [11, 39] was under 9 grams/day and the “acceptable daily intake (ADI)” value ([11]; human, oral, based on 9 grams per day for 2 years) was “up to 9 grams per day”. The safety margin ([11]; recommended oral daily intake 1.75 g compared to 9 grams per day taken orally for 2 years) was 5 ×, the safety margin [12] was 18 × and the safety margin [13] was 96 ×. The “estimate of safety margin” value [14] was 4-8 ×, the “shelf life (stable as supplied), by extrapolation” value ([15]; original package, ambient temperature, protected from heat and moisture) was 2 years and the purity percent change ([15]; two preparation batches, T0 to T6 (months)) was “No purity percent change”. The NOAEL [16] was at least 100 mg/kg/day, the NOAEL [17] was at least 25 mg/kg/day and the NOAEL ([18]; expressed per day) was at least 189 mg/kg/day. For the same molecule, the NOAEL [18] was at least 63 mg/kg/8 hours, the NOAEL ([19]; Human HIV patients, orally up to 9000 mg/day for 2 years, highest dose tested) was at least 129 mg/kg/day and the “changes in serum chemistry or hematology” value ([19]; human, up to 9 grams per day orally for 2 years) was “without clinically significant changes”. The “adverse experiences possibly related to treatment” value ([20]; across all clinical trials) was “only minor adverse experiences”, the “statistically significant adverse events” value ([20]; human clinical trials) was “No statistical significant adverse events were observed” and the tolerability ([20]; human clinical trials) was “well tolerated”. For the same molecule, the tolerability ([20]; human clinical trials, listed as procysteine (Cellactin)) was “generally well tolerated without observed adverse effects; also recorded: well tolerated”, the blood glutathione levels [21] was “significant increase” and the “Mouse Micronucleus, genetic toxicity” value [22] was “negative”. The “independence from mechanical ventilation versus placebo” value [23] was “a median of five days earlier”, the “efficiency in transporting oxygen to the blood stream (measure of lung function)” value [24] was “to a greater degree than did placebo-treated patients” and the “glutathione in rat lungs and leukocytes” value [25] was “preserved”. For the same molecule, the tissue glutathione levels [26] was “increased (repleted)”, the tissue glutathione levels [27] was “increased (repleted)” and the cellular glutathione levels [28] was “maintained”. For the same molecule, the liver glutathione levels [29] was “increased”, the ROS damage [30] was “prevent” and the “intracellular levels of glutathione” value [30] was “increase”. The NOAEL [31] was at least 2.4 g/kg, the NOAEL [32] was at least 2.4 g/kg and the NOAEL [33] was at least 0.45 g/kg. For the same molecule, the NOAEL [34] was at least 0.45 g/kg, the NOAEL [35] was at least 2.4 g/kg and the NOAEL [36] was at least 0.45 g/kg. For the same molecule, the “acute NOAEL and repeat NOAEL, intravenous administration” value [37] was 450 mg/kg and the “acute NOAEL and repeat NOAEL, intravenous administration” value [38] was 2400 mg/kg.
